Test results: patent US11840686B2, “Modulation of prekallikrein (PKK) expression” (Ionis Pharmaceuticals, Inc., priority 2013, dated 2023)
Strand notation (5' to 3'): a small letter for the sugar, then the base; units joined by * are phosphorothioate-linked, units joined directly phosphodiester-linked; [ ] holds rarer units or linkages, { } end groups; capitals alone tell only the bases. e = 2'-O-(2-methoxyethyl) (MOE); [5mC] = 5-methylcytosine; d = 2'-deoxy (DNA)

Columns and labels:
[1] = test system: human PKK mRNA; experiment: Antisense inhibition of human PKK mRNA in HepaRG cells, 5,000 nM (Example 2); type: cell-based
Outline: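 qRT-PCR (RTS3454) read-out, RIBOGREEN-normalized; % inhibition vs untreated cells. HepaRG, 20,000 cells/well, electroporation, 5,000 nM ASO, ~24 h.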

[2] = test system: human PKK mRNA; experiment: Dose-dependent antisense inhibition of human PKK in HepaRG cells, 0.19-5.00 uM (Example 5); type: cell-based; settings: for percent inhibition of PKK mRNA, 0.19 μM: 0.19 μM antisense oligonucleotide; for percent inhibition of PKK mRNA, 0.56 μM: 0.56 μM antisense oligonucleotide; for percent inhibition of PKK mRNA, 1.67 μM: 1.67 μM antisense oligonucleotide; for percent inhibition of PKK mRNA, 5.00 μM: 5.00 μM antisense oligonucleotide
Outline: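 PKK mRNA knockdown was measured by real-time PCR (primer probe set RTS3454) about 16 h after electroporating 20,000 HepaRG cells per well with oligonucleotide at four doses from 0.19 to 5.00 μM. Levels were adjusted to RIBOGREEN-measured total RNA, and IC50 values were calculated.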

[3] = Table 34, HepaRG, electroporation, ~16 h
[4] = Table 34, PKK mRNA, HepaRG, electroporation, ~16 h
[5] = HepaRG cells, electroporation, 5,000 nM antisense oligonucleotide, approx. 24 hours, primer probe set RTS3454, relative to untreated control cells, Table 12
[6] = HepaRG cells, electroporation, approximately 16 hours, Table 38
[7] = 4 point dose response, HepaRG cells, Table 38
[8] = HepaRG cells, electroporation with 5,000 nM antisense oligonucleotide, approximately 24 hours, PKK mRNA by RT-PCR (RTS3454), relative to untreated control cells, Table 6 experiment
[9] = HepaRG cells, electroporation, approximately 16 hours, Table 35

546829 (eA*eA*e[5mC]*eA*eG*dT*dA*dT*d[5mC]*dA*d[5mC]*dT*dG*dT*dA*e[5mC]*eT*eA*eG*eT; antisense) [compound 546829]
% inhibition ([1]; Table 13, human PKK mRNA in HepaRG cells, 5-10-5 gapmers): 94% | percent inhibition of PKK at 0.19 μM [2, 3]: 3% | percent inhibition of PKK at 0.56 μM [2, 3]: 30% | percent inhibition of PKK at 1.67 μM [2, 3]: 73% | percent inhibition of PKK at 5.00 μM [2, 3]: 88% | IC50 [2, 4]: 1000 nM

548758 (antisense e[5mC]*eA*eG*eT*dA*dT*d[5mC]*dA*d[5mC]*dT*dG*dT*dA*e[5mC]*eT*eA*eG) [compound 548758]
% inhibition ([1]; human PKK mRNA, HepaRG cells, 5,000 nM antisense oligonucleotide, Table 18): 97% | percent inhibition of PKK at 0.19 0μM ([2]; 0.19 0μM, HepaRG cells, electroporation, approximately 16 hours, Table 41): 0% | percent inhibition of PKK at 0.56 0μM ([2]; 0.56 0μM, HepaRG cells, electroporation, approximately 16 hours, Table 41): 72% | percent inhibition of PKK at 1.67 1μM ([2]; 1.67 1μM, HepaRG cells, electroporation, approximately 16 hours, Table 41): 79% | IC50 ([2]; 4 point dose response, HepaRG cells, Table 41): 600 nM | percent inhibition of PKK at 0.19 μM [2, 3]: 41% | percent inhibition of PKK at 0.56 μM [2, 3]: 47% | percent inhibition of PKK at 1.67 μM [2, 3]: 82% | percent inhibition of PKK at 5.00 μM [2, 3]: 94% | IC50 [2, 4]: 400 nM

546412 (eG*eG*e[5mC]*eT*eT*d[5mC]*dA*dA*dT*dA*dT*dT*dG*dA*d[5mC]*eT*eT*eT*eG*eG; antisense) [compound 546412]
% inhibition [1, 5]: 84% | percent inhibition of PKK at 0.19 μM [2, 6]: 0% | percent inhibition of PKK at 0.56 μM [2, 6]: 1% | percent inhibition of PKK at 1.67 μM [2, 6]: 61% | percent inhibition of PKK at 5.00 μM [2, 6]: 62% | IC50 [2, 7]: 2300 nM

546198 (antisense eT*e[5mC]*eT*eT*e[5mC]*dA*dA*d[5mC]*dA*d[5mC]*dT*dG*d[5mC]*dT*dA*eA*e[5mC]*e[5mC]*eT*eT) [compound 546198]
% inhibition [1, 8]: 85% | percent inhibition of PKK at 0.19 μM [2, 6]: 7% | percent inhibition of PKK at 0.56 μM [2, 6]: 3% | percent inhibition of PKK at 1.67 μM [2, 6]: 45% | percent inhibition of PKK at 5.00 μM [2, 6]: 92% | IC50 [2, 7]: 1300 nM

547585 (eA*eA*e[5mC]*eA*eG*dT*dA*dT*d[5mC]*dA*d[5mC]*dT*dG*dT*d[5mC]*e[5mC]*eT*eA*eT*eA; antisense) [compound 547585]
% inhibition ([1]; human PKK mRNA in HepaRG cells, 5-10-5 gapmers, Table 14): 85% | percent inhibition of PKK at 0.19 μM [2, 6]: 42% | percent inhibition of PKK at 0.56 μM [2, 6]: 57% | percent inhibition of PKK at 1.67 μM [2, 6]: 70% | percent inhibition of PKK at 5.00 μM [2, 6]: 95% | IC50 [2, 7]: 400 nM | percent inhibition of PKK mRNA, 0.19 μM ([2]; HepaRG cells): 0% | percent inhibition of PKK mRNA, 0.56 μM ([2]; HepaRG cells): 46% | percent inhibition of PKK mRNA, 1.67 μM ([2]; HepaRG cells): 89% | percent inhibition of PKK mRNA, 5.00 μM ([2]; HepaRG cells): 93% | IC50 ([2]; HepaRG cells, 0.19-5.00 μM): 800 nM

546429 (eG*e[5mC]*e[5mC]*e[5mC]*eA*d[5mC]*d[5mC]*dA*dA*d[5mC]*dA*dA*dT*d[5mC]*dT*e[5mC]*eT*eG*eG*eT; antisense) [compound 546429]
% inhibition [1, 5]: 84% | percent inhibition of PKK at 0.19 μM [2, 6]: 6% | percent inhibition of PKK at 0.56 μM [2, 6]: 10% | percent inhibition of PKK at 1.67 μM [2, 6]: 44% | percent inhibition of PKK at 5.00 μM [2, 6]: 69% | IC50 [2, 7]: 2300 nM

546208 (antisense e[5mC]*eG*eT*eT*eA*d[5mC]*dT*d[5mC]*dA*dG*d[5mC]*dA*d[5mC]*d[5mC]*dT*eT*eT*eA*eT*eA) [compound 546208]
% inhibition [1, 8]: 92% | percent inhibition of PKK at 0.19 μM [2, 9]: 16% | percent inhibition of PKK at 0.56 μM [2, 9]: 45% | percent inhibition of PKK at 1.67 μM [2, 9]: 79% | percent inhibition of PKK at 5.00 μM [2, 9]: 91% | IC50 ([2]; 4 point dose response, HepaRG cells, Table 35): 700 nM | percent inhibition of PKK mRNA, 0.19 μM ([2]; HepaRG cells): 5% | percent inhibition of PKK mRNA, 0.56 μM ([2]; HepaRG cells): 33% | percent inhibition of PKK mRNA, 1.67 μM ([2]; HepaRG cells): 70% | percent inhibition of PKK mRNA, 5.00 μM ([2]; HepaRG cells): 97% | IC50 ([2]; HepaRG cells, 0.19-5.00 μM): 900 nM

546403 (e[5mC]*e[5mC]*eA*eT*eG*dA*dA*d[5mC]*dA*dT*d[5mC]*d[5mC]*dT*dA*dT*e[5mC]*e[5mC]*eG*eT*eG; antisense) [compound 546403]
% inhibition [1, 5]: 83% | percent inhibition of PKK at 0.19 μM [2, 6]: 0% | percent inhibition of PKK at 0.56 μM [2, 6]: 20% | percent inhibition of PKK at 1.67 μM [2, 6]: 37% | percent inhibition of PKK at 5.00 μM [2, 6]: 41% | IC50 [2, 7]: > 5000 nM
